In ChEMBL document CHEMBL3885861, “Open TG-GATES”:

Species: Rattus norvegicus
Test: Open TG-GATES - Regimen: Single
Type: toxicity, organism-based, Sprague-Dawley
Parameters: regimen Single, gender Male, age 6 weeks
Settings: in vivo, po, route gavage; for APTT / Bas / Eos / Fbg / Hb / Ht / Lym / MCH / MCHC / MCV / Mono / Neu / PT / Plat / RBC / Ret / WBC: tissue Blood; for KIDNEY_L / KIDNEY_R / KIDNEY_TOTAL: tissue Kidney; for LIVER: tissue Liver; for A/G / ALP / ALT / AST / BUN / CRE / Ca / Cl / DBIL / GLC / IP / K / LDH / Na / PL / RALB / TBIL / TC / TG / TP / gamma-GTP: tissue Plasma
[1] = 0 mg/kg, 3 h, dose level Control
[2] = 0 mg/kg, 6 h, dose level Control
[3] = 0 mg/kg, 9 h, dose level Control
[4] = 0 mg/kg, 24 h, dose level Control
[5] = 100 mg/kg, 24 h, dose level Low

## CC[C@@H](CO)NCCN[C@@H](CC)CO [ETHAMBUTOL]
[1]
  TERMINAL_BW: 227 g
  APTT: 21.4 s
  Bas: 0%
  Eos: 0.8%
  Fbg: 319 mg/dL
  Hb: 13.3 g/dL
  Ht: 39.5%
  Lym: 83.8%
  MCH: 22.3 pg
  MCHC: 33.7%
  MCV: 66.2 fL
  Mono: 2%
  Neu: 12.2%
  PT: 15.9 s
  Plat: 118.8 x10_4/uL
  RBC: 597.6 x10_4/ul
  Ret: 8.3%
  WBC: 97.7 x10_2/uL
  KIDNEY_L: 1 g
  KIDNEY_R: 1 g
  KIDNEY_TOTAL: 2.1 g
  LIVER: 11.4 g
  A/G: 1.2
  ALP: 1599 IU/L
  ALT: 42.2 IU/L
  AST: 73.6 IU/L
  BUN: 14.2 mg/dL
  CRE: 0.2 mg/dL
  Ca: 10.4 mg/dL
  Cl: 106.6 meq/L
  DBIL: 0 mg/dL
  GLC: 192.4 mg/dL
  IP: 8.7 mg/dL
  K: 4.1 meq/L
  LDH: 171.6 IU/L
  Na: 144.2 meq/L
  PL: 137.2 mg/dL
  RALB: 3 g/dL
  TBIL: 0.01 mg/dL
  TC: 75.6 mg/dL
  TG: 63.8 mg/dL
  TP: 5.3 g/dL
  gamma-GTP: 1.6 IU/L
[2]
  TERMINAL_BW: 224 g
  APTT: 22.2 s
  Bas: 0%
  Eos: 0.8%
  Fbg: 301.2 mg/dL
  Hb: 13.6 g/dL
  Ht: 39.9%
  Lym: 82.6%
  MCH: 21.7 pg
  MCHC: 34.1%
  MCV: 63.8 fL
  Mono: 2.4%
  Neu: 13%
  PT: 15.6 s
  Plat: 122.5 x10_4/uL
  RBC: 624.8 x10_4/ul
  Ret: 7.5%
  WBC: 117.8 x10_2/uL
  KIDNEY_L: 1 g
  KIDNEY_R: 1 g
  KIDNEY_TOTAL: 2 g
  LIVER: 10 g
  A/G: 1.2
  ALP: 1271 IU/L
  ALT: 35 IU/L
  AST: 66.2 IU/L
  BUN: 11.2 mg/dL
  CRE: 0.2 mg/dL
  Ca: 10.3 mg/dL
  Cl: 105.8 meq/L
  DBIL: 0 mg/dL
  GLC: 200.4 mg/dL
  IP: 9.2 mg/dL
  K: 4.4 meq/L
  LDH: 176.2 IU/L
  Na: 141.8 meq/L
  PL: 134.8 mg/dL
  RALB: 2.9 g/dL
  TBIL: 0.02 mg/dL
  TC: 72 mg/dL
  TG: 82.8 mg/dL
  TP: 5.4 g/dL
  gamma-GTP: 1.6 IU/L
[3]
  TERMINAL_BW: 220 g
  APTT: 22.6 s
  Bas: 0%
  Eos: 0.6%
  Fbg: 288 mg/dL
  Hb: 13.4 g/dL
  Ht: 39.5%
  Lym: 82.6%
  MCH: 21.3 pg
  MCHC: 34%
  MCV: 62.7 fL
  Mono: 2.4%
  Neu: 13.2%
  PT: 16.5 s
  Plat: 116 x10_4/uL
  RBC: 632 x10_4/ul
  Ret: 6.9%
  WBC: 93.6 x10_2/uL
  KIDNEY_L: 1 g
  KIDNEY_R: 1 g
  KIDNEY_TOTAL: 2 g
  LIVER: 9.3 g
  A/G: 1.2
  ALP: 1394.2 IU/L
  ALT: 37.4 IU/L
  AST: 69.8 IU/L
  BUN: 10.6 mg/dL
  CRE: 0.2 mg/dL
  Ca: 10.1 mg/dL
  Cl: 107.8 meq/L
  DBIL: 0.002 mg/dL
  GLC: 180.2 mg/dL
  IP: 9 mg/dL
  K: 4.1 meq/L
  LDH: 136.8 IU/L
  Na: 142 meq/L
  PL: 118.2 mg/dL
  RALB: 3 g/dL
  TBIL: 0.024 mg/dL
  TC: 68.4 mg/dL
  TG: 37.4 mg/dL
  TP: 5.6 g/dL
  gamma-GTP: 1.2 IU/L
[4]
  TERMINAL_BW: 232.7 g
  APTT: 22.2 s
  Bas: 0%
  Eos: 0.8%
  Fbg: 311.8 mg/dL
  Hb: 13.9 g/dL
  Ht: 39.5%
  Lym: 82.4%
  MCH: 22.5 pg
  MCHC: 35.1%
  MCV: 64 fL
  Mono: 2.4%
  Neu: 13.4%
  PT: 16.4 s
  Plat: 115.4 x10_4/uL
  RBC: 618.2 x10_4/ul
  Ret: 6.9%
  WBC: 99.5 x10_2/uL
  KIDNEY_L: 1 g
  KIDNEY_R: 1 g
  KIDNEY_TOTAL: 2 g
  LIVER: 10.8 g
  A/G: 1.1
  ALP: 1625.6 IU/L
  ALT: 47.6 IU/L
  AST: 73 IU/L
  BUN: 17.2 mg/dL
  CRE: 0.2 mg/dL
  Ca: 10.6 mg/dL
  Cl: 106.8 meq/L
  DBIL: 0 mg/dL
  GLC: 199 mg/dL
  IP: 8.1 mg/dL
  K: 4.1 meq/L
  LDH: 176.8 IU/L
  Na: 142.4 meq/L
  PL: 147.2 mg/dL
  RALB: 3 g/dL
  TBIL: 0.006 mg/dL
  TC: 73.4 mg/dL
  TG: 94.6 mg/dL
  TP: 5.7 g/dL
  gamma-GTP: 1.8 IU/L
100 mg/kg, 3 h, dose level Low
  TERMINAL_BW: 224 g
  APTT: 21.6 s
  Bas: 0%
  Eos: 0.8%
  Fbg: 308 mg/dL
  Hb: 13.7 g/dL
  Ht: 40%
  Lym: 80.4%
  MCH: 21.9 pg
  MCHC: 34.1%
  MCV: 64.2 fL
  Mono: 2.4%
  Neu: 14.8%
  PT: 15.6 s
  Plat: 118 x10_4/uL
  RBC: 623.8 x10_4/ul
  Ret: 8.1%
  WBC: 87.8 x10_2/uL
  KIDNEY_L: 1 g
  KIDNEY_R: 1 g
  KIDNEY_TOTAL: 2 g
  LIVER: 10.9 g
  A/G: 1.2
  ALP: 1530.6 IU/L
  ALT: 41 IU/L
  AST: 73 IU/L
  BUN: 12.6 mg/dL
  CRE: 0.1 mg/dL
  Ca: 10.4 mg/dL
  Cl: 107.4 meq/L
  DBIL: 0 mg/dL
  GLC: 189.8 mg/dL
  IP: 8.6 mg/dL
  K: 4 meq/L
  LDH: 172.8 IU/L
  Na: 142.2 meq/L
  PL: 134.2 mg/dL
  RALB: 3 g/dL
  TBIL: 0.018 mg/dL
  TC: 72.6 mg/dL
  TG: 74.4 mg/dL
  TP: 5.4 g/dL
  gamma-GTP: 1.8 IU/L
100 mg/kg, 6 h, dose level Low
  TERMINAL_BW: 222.5 g
  APTT: 21.1 s
  Bas: 0%
  Eos: 0.8%
  Fbg: 318 mg/dL
  Hb: 13.5 g/dL
  Ht: 39.8%
  Lym: 78.8%
  MCH: 21.8 pg
  MCHC: 33.9%
  MCV: 64.2 fL
  Mono: 2.8%
  Neu: 16%
  PT: 15.8 s
  Plat: 119.6 x10_4/uL
  RBC: 620.4 x10_4/ul
  Ret: 7.4%
  WBC: 92.6 x10_2/uL
  KIDNEY_L: 1 g
  KIDNEY_R: 1.1 g
  KIDNEY_TOTAL: 2.1 g
  LIVER: 10.2 g
  A/G: 1.2
  ALP: 1476.2 IU/L
  ALT: 45.6 IU/L
  AST: 77 IU/L
  BUN: 12.6 mg/dL
  CRE: 0.2 mg/dL
  Ca: 10.3 mg/dL
  Cl: 106.6 meq/L
  DBIL: 0 mg/dL
  GLC: 180.4 mg/dL
  IP: 9.2 mg/dL
  K: 4.3 meq/L
  LDH: 191.6 IU/L
  Na: 140 meq/L
  PL: 128.6 mg/dL
  RALB: 2.9 g/dL
  TBIL: 0.02 mg/dL
  TC: 72.8 mg/dL
  TG: 54.6 mg/dL
  TP: 5.3 g/dL
  gamma-GTP: 1.8 IU/L
100 mg/kg, 9 h, dose level Low
  TERMINAL_BW: 224.5 g
  APTT: 22.3 s
  Bas: 0%
  Eos: 1%
  Fbg: 293.4 mg/dL
  Hb: 13.3 g/dL
  Ht: 38.9%
  Lym: 80%
  MCH: 21.8 pg
  MCHC: 34.2%
  MCV: 63.6 fL
  Mono: 2.2%
  Neu: 15.6%
  PT: 16.2 s
  Plat: 116.9 x10_4/uL
  RBC: 613 x10_4/ul
  Ret: 8%
  WBC: 92.7 x10_2/uL
  KIDNEY_L: 1 g
  KIDNEY_R: 1 g
  KIDNEY_TOTAL: 2.1 g
  LIVER: 9.4 g
  A/G: 1.1
  ALP: 1292.4 IU/L
  ALT: 36.6 IU/L
  AST: 66.8 IU/L
  BUN: 10 mg/dL
  CRE: 0.2 mg/dL
  Ca: 10.1 mg/dL
  Cl: 106.6 meq/L
  DBIL: 0 mg/dL
  GLC: 186.2 mg/dL
  IP: 9 mg/dL
  K: 4.2 meq/L
  LDH: 143 IU/L
  Na: 140.2 meq/L
  PL: 128.2 mg/dL
  RALB: 2.9 g/dL
  TBIL: 0.02 mg/dL
  TC: 75.4 mg/dL
  TG: 59.2 mg/dL
  TP: 5.4 g/dL
  gamma-GTP: 1.8 IU/L
[5]
  TERMINAL_BW: 238.5 g
  APTT: 22.6 s
  Bas: 0%
  Eos: 0.6%
  Fbg: 333.2 mg/dL
  Hb: 13.4 g/dL
  Ht: 38.7%
  Lym: 82.4%
  MCH: 21.7 pg
  MCHC: 34.7%
  MCV: 62.7 fL
  Mono: 2.2%
  Neu: 14%
  PT: 15.9 s
  Plat: 119.4 x10_4/uL
  RBC: 618.4 x10_4/ul
  Ret: 7.6%
  WBC: 93.8 x10_2/uL
  KIDNEY_L: 1 g
  KIDNEY_R: 1.1 g
  KIDNEY_TOTAL: 2.1 g
  LIVER: 11.9 g
  A/G: 1.2
  ALP: 1636.2 IU/L
  ALT: 46.8 IU/L
  AST: 75.6 IU/L
  BUN: 17 mg/dL
  CRE: 0.1 mg/dL
  Ca: 10.7 mg/dL
  Cl: 106.6 meq/L
  DBIL: 0 mg/dL
  GLC: 186 mg/dL
  IP: 8.2 mg/dL
  K: 4.1 meq/L
  LDH: 129.2 IU/L
  Na: 141.8 meq/L
  PL: 157.6 mg/dL
  RALB: 3.1 g/dL
  TBIL: 0.012 mg/dL
  TC: 88.8 mg/dL
  TG: 87.4 mg/dL
  TP: 5.7 g/dL
  gamma-GTP: 2.2 IU/L
